Assay results as given in US4490388A, “Amidine compound and anticomplement agent comprising same” (Torii & Co., Ltd., priority 1981, dated 1984).
Where two headings read alike, the source gives them in different places.

What was measured:
C1s = target: T1, C1s (Homo sapiens, UniProt P09871); assay: Anti-C1 esterase activity, C1s (hydrolysis of ATEE); type: biochemical
T1 sequence (P09871 438-688 limits assumed): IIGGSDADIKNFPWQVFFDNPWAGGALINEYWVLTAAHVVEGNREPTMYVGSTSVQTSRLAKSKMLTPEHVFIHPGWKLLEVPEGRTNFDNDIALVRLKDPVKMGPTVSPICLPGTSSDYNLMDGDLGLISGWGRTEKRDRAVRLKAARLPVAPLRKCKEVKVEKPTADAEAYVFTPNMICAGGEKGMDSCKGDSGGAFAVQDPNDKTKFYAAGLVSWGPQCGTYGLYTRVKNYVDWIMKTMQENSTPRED
T1 sequence (P09871 16-437 partner limits assumed): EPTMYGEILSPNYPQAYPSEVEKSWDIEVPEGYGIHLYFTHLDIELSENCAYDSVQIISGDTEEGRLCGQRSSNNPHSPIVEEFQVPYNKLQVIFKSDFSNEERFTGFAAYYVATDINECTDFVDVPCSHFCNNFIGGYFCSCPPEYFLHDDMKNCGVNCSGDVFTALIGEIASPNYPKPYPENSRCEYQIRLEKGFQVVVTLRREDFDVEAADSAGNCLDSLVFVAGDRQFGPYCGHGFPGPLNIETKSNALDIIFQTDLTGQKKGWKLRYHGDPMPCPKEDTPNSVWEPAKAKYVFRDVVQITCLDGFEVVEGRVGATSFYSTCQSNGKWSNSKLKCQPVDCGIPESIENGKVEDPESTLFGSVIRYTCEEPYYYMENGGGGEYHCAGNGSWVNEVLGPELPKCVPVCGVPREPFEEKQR
Experimental: The anti-C1 esterase (C1r, C1s) activity was determined according to the method of Okamura et al. [K. Okamura, M. Muramatsu and B. Fujii, Biochem. Biophys. Acta, 295, 252-257 (1973)]. The inhibition of complement mediated hemolysis was determined according to the method of Baker et al. [B. R. Baker and E. H. Erickson, J. Med. Chem., 12, 408-414 (1969)]. The figures in Table 2 have the following meanings:
C1s: Molar concentration of the test compound which inhibits 50% of the ability of C1s to hydrolyse ATEE (acetyltyrosin ethyl ester).

C1r = target: T2, C1r (Homo sapiens, UniProt P00736); assay: Anti-C1 esterase activity, C1r (hydrolysis of AAME); type: biochemical; settings: for IC50: molar concentration inhibiting 50% of AAME hydrolysis, read-out: Anti-C1 activity, C1r id50; for inhibition at 10 µM: at 1×10^-5 M, read-out: Anti-C1 activity, C1r percent inhibition
T2 sequence (P00736 464-705 limits assumed): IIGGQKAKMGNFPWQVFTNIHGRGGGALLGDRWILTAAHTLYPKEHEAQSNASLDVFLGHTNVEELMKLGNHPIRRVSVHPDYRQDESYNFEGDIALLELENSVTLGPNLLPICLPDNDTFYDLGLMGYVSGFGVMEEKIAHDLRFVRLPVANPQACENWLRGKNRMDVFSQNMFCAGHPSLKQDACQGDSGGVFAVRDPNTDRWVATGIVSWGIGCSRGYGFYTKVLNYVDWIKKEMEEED
T2 sequence (P00736 18-463 partner limits assumed): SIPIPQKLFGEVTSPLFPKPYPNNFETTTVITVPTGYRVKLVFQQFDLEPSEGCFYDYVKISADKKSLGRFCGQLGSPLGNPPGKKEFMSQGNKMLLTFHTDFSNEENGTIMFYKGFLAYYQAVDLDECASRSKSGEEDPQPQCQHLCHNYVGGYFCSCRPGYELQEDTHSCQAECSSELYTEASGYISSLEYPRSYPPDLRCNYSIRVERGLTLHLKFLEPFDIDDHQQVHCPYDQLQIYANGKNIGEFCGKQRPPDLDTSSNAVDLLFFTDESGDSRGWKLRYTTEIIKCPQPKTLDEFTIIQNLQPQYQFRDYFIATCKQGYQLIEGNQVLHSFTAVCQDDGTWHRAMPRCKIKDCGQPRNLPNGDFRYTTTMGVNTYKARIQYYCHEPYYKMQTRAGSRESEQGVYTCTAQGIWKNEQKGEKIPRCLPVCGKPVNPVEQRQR
Experimental: The anti-C1 esterase (C1r, C1s) activity was determined according to the method of Okamura et al. [K. Okamura, M. Muramatsu and B. Fujii, Biochem. Biophys. […] The figures in Table 2 have the following meanings:
C1r: Molar concentration of the test compound which inhibits 50% of the ability of C1r to hydrolyse AAME (acetylarginin methyl ester) (id50).

Plasmin = Plasmin (Homo sapiens, UniProt P00747); assay: Anti-plasmin activity (hydrolysis of TAME); type: biochemical
Chain of Plasmin (P00747 581-810 limits assumed): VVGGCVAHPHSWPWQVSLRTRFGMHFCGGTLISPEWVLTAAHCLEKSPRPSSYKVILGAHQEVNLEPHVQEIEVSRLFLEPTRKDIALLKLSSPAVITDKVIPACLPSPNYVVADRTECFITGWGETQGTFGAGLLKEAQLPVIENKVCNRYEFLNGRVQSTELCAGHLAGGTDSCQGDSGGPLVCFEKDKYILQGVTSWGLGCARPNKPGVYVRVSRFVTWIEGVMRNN
Chain of Plasmin (P00747 97-580 partner limits assumed): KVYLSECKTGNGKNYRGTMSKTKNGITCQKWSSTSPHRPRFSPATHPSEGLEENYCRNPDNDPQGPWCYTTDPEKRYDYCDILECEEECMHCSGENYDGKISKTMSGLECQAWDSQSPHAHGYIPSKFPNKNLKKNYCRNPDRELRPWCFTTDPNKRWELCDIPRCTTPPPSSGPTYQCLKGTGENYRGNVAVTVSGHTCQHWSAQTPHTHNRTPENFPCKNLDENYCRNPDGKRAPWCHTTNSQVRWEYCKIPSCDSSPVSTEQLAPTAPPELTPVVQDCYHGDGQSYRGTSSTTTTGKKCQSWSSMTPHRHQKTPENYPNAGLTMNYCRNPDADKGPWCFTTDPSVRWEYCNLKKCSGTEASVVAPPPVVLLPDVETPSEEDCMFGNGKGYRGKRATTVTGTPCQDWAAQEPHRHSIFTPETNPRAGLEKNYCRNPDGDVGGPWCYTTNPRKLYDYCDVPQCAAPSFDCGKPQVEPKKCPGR
Experimental: (§1) The anti-trypsin, anti-plasmin, anti-kallikrein and anti-thrombin activities were determined according to the method of Muramatsu et al. [M. Muramatsu, T. Onishi, S. Makino, Y. Hayashi and S. Fujii, J. of Biochem., 58, 214 (1965)]. The data summarized in Table 1 are expressed in terms of molar concentration (id50) of the test compound which inhibits 50% of the activity of each enzyme to hydrolyze TAME (tosylarginine methyl ester). The compound No. corresponds to the compound number shown in Examples.

complement = assay: Inhibition of complement mediated hemolysis; type: cell-based; settings: read-out: Inhibition of complement mediated hemolysis (%)
Experimental: The complement mediated hemolysis is widely used as a means to determine the titration of complement. The principle of this method is based on the fact that hemolysis is caused by the activation of complement, when the latter is added to a complex (immune complex) of erythrocytes and the autibody thereof. The degree of hemolysis varies in proportion to the amount of complement added. Therefore, when a known amount of complement admixed with a C1 esterase inhibitor is used, the hemolysis must be suppressed in proportion to the inhibitory activity.
The anti-C1 esterase (C1r, C1s) activity was determined according to the method of Okamura et al. [K. Okamura, M. Muramatsu and B. Fujii, Biochem. Biophys. […] The inhibition of complement mediated hemolysis was determined according to the method of Baker et al. [B. R. Baker and E. H. Erickson, J. Med. Chem., 12, 408-414 (1969)].

Thrombin = Thrombin (Bos taurus, UniProt P00735); assay: Anti-thrombin activity (hydrolysis of TAME); type: biochemical
Experimental: as §1

Trypsin = target: T3, Trypsin (Bos taurus, UniProt P00760); assay: Anti-trypsin activity (hydrolysis of TAME); type: biochemical
T3 sequence (P00760 24-246): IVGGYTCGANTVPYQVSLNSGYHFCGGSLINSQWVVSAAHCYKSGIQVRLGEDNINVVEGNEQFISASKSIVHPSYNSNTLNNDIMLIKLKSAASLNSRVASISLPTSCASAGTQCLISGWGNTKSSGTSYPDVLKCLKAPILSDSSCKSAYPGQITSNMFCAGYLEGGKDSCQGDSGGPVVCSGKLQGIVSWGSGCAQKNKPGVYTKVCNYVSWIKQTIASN
Experimental: as §1

[1] = Toxicity, median lethal dose (LD50); settings: in vivo
[2] = molar concentration inhibiting 50% of TAME hydrolysis, read-out: id50, Plasmin
[3] = molar concentration inhibiting 50% of TAME hydrolysis, read-out: id50, Trypsin

SMILES | IC50 (C1s) | IC50 (C1r) | IC50 (Plasmin; [2]) | inhibition at 100 µM (complement; 1 × 10^-4 M) | inhibition at 10 µM (complement; 1 × 10^-5 M) | inhibition at 1 µM (complement; 1 × 10^-6 M) | inhibition at 0.1 µM (complement; 1 × 10^-7 M) | IC50 (Thrombin) | IC50 (Trypsin; [3]) | inhibition at 10 µM (C1r) | IC50 (Plasmin) | inhibition at 0.1 µM (complement) | inhibition at 1 µM (complement) | inhibition at 10 µM (complement) | inhibition at 100 µM (complement) | IC50 (Trypsin) | inhibition at 10 µM (Trypsin; at 1×10^-5 M, read-out: percentage inhibition, Trypsin) | LD50 ([1]; ip) | LD50 ([1]; po)
N=C(N)C=Cc1ccc(OC(=O)c2ccccc2)cc1 [Compound 12, 4-(β-amidinoethenyl)-phenyl benzoate] | 0.3 µM | 0.8 µM | 2 µM | 100% | 100% | 54% | 11% | 3 µM | 0.6 µM | – | – | – | – | – | – | – | – | – | –
N=C(N)C=Cc1ccc(OC(=O)Cc2ccccc2)cc1 [Compound 13, 4-(β-amidinoethenyl)phenyl phenylacetate] | – | – | – | – | – | – | – | 5 µM | – | 21% | 10 µM | 0% | 6% | 31% | 99% | 1 µM | – | – | –
CC(C)Cc1ccc(C(C)C(=O)Oc2ccc(C=CC(=N)N)cc2)cc1 (stereo not shown) [Compound 14] | – | – | 8 µM | 0% | 74% | 10% | 0% | 8 µM | 9 µM | 38% | – | – | – | – | – | – | – | – | –
N=C(N)C=Cc1ccc(OC(=O)CCc2ccccc2)cc1 [Compound 15] | – | – | > 10 µM | – | 10% | – | 0% | > 10 µM | 2 µM | 10% | – | – | 2% | – | 80% | – | – | – | –
Cc1ccc(C(=O)Oc2ccc(C=CC(=N)N)cc2)cc1 [Compound 20] | – | 1 µM | 4 µM | 97% | 75% | 38% | 17% | > 10 µM | 0.03 µM | – | – | – | – | – | – | – | – | – | –
CC(C)(C)c1ccc(C(=O)Oc2ccc(C=CC(=N)N)cc2)cc1 [Compound 22] | – | 5 µM | 3 µM | 88% | 76% | 25% | 11% | 3 µM | 5 µM | – | – | – | – | – | – | – | – | – | –
N=C(N)C=Cc1ccc(OC(=O)c2ccc(OCc3ccccc3)cc2)cc1 [Compound 26] | – | – | > 10 µM | 38% | 14% | 6% | 0% | > 10 µM | 0.2 µM | 37% | – | – | – | – | – | – | – | – | –
CSc1ccc(C(=O)Oc2ccc(C=CC(=N)N)cc2)cc1 [Compound 28] | – | 0.9 µM | 1 µM | 97% | 71% | 34% | – | 3 µM | – | – | – | 23% | – | – | – | – | 26% | – | –
N=C(N)C=Cc1ccc(OC(=O)c2ccc(C=O)cc2)cc1 [Compound 30] | – | 1 µM | 0.6 µM | 99% | 94% | 62% | – | 0.6 µM | 4 µM | – | – | 45% | – | – | – | – | – | – | –
CN(C)c1ccc(C(=O)Oc2ccc(C=CC(=N)N)cc2)cc1 [Compound 32] | – | 10 µM | > 10 µM | 73% | 80% | 50% | 32% | > 10 µM | 1 µM | – | – | – | – | – | – | – | – | – | –
N=C(N)C=Cc1ccc(OC(=O)c2ccc(CN)cc2)cc1 [Compound 34] | – | – | – | 100% | 99% | 99% | 86% | – | – | – | – | – | – | – | – | – | – | 200 mg/kg | 2500 mg/kg
N=C(N)C=Cc1ccc(OC(=O)c2ccc(Cl)cc2)cc1 [Compound 39] | – | 0.5 µM | 4 µM | 100% | 99% | 89% | 71% | 2 µM | 2 µM | – | – | – | – | – | – | – | – | – | –
N=C(N)C=Cc1ccc(OC(=O)C=Cc2cccc(C(F)(F)F)c2)cc1 [Compound 41] | – | – | 3 µM | 71% | 10% | 10% | 0% | > 10 µM | 3 µM | 20% | – | – | – | – | – | – | – | – | –
